Source: patent publication US8901118B2, “Compounds and methods for kinase modulation, and indications therefor” (Plexxikon Inc., priority 2010, dated 2014)

Assays:
CYP2C19 = CYP2C19 (Homo sapiens, UniProt P33261); test: CYP2C19 inhibition (fluorescent substrate CEC); format: in vitro ADME; settings: read-out: Cyp IC50 2C19
Procedure, shortened: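 Test compounds, 10-point 1:1 serial dilutions in NADPH-regenerating cofactor mix, were preincubated 10 min at 37° C before recombinant enzyme and fluorogenic substrate reactions at 37° C (CYP1A2 15 min; CYP2C9 45 min; CYP2C19, 2D6 30 min). Product fluorescence was read at 409 ex with 460 em (1A2, 2C19) or 530 em (2C9, 2D6), and IC50 fitted from signal versus concentration.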

TrkA kinase = TrkA kinase (Homo sapiens, UniProt P04629); test: TrkA kinase biochemical activity assay (AlphaScreen); settings: 100 μM ATP; read-out: Biochemical Inhibition IC50 TrkA
Procedure, shortened: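 Recombinant TrkA with 30 nM biotin-(E4Y)10 and 100 μM ATP in 25 mM Hepes pH 7.5, 10 mM MnCl2, 5% DMSO, 40 min at room temperature. Phosphorylation read by AlphaScreen (streptavidin donor, PY20 acceptor beads); IC50 from signal vs compound concentration. TrkC run similarly.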

CYP3A4(BQ) = CYP3A4(BQ) (Homo sapiens, UniProt P08684); test: CYP3A4(BQ) inhibition; format: in vitro ADME; settings: CYP3A4, substrate BQ; read-out: Cyp IC50 3A4(BQ)
Procedure, shortened: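 Inhibition of human CYP3A4 (BQ substrate) was measured by fluorescence, since blocking metabolism of a known substrate lowers the fluorescent product signal. Compounds dissolved in DMSO at 100 mM were diluted into acetonitrile and then into NADPH regeneration cofactor mix, serially diluted 1:1 across 10 points, and preincubated in 384 well plates for 10 minutes at 37° C.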

Fms kinase = Fms kinase (Homo sapiens, UniProt P07333); test: Fms kinase biochemical activity assay (AlphaScreen, biotin-(E4Y)10 phosphorylation); settings: 100 μM ATP; read-out: Biochemical Inhibition IC50 Fms
Procedure, shortened: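 Fms kinase (1 ng/well) phosphorylating 30 nM biotin-(E4Y)10 with 100 μM ATP in 25 mM Hepes pH 7.5, MgCl2/MnCl2, 5% DMSO, 20 min at 30 °C. Phosphotyrosine detected by AlphaScreen streptavidin donor and PY20 acceptor beads; IC50 from signal versus compound concentration.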

Chain of TrkA kinase (P04629 33-796): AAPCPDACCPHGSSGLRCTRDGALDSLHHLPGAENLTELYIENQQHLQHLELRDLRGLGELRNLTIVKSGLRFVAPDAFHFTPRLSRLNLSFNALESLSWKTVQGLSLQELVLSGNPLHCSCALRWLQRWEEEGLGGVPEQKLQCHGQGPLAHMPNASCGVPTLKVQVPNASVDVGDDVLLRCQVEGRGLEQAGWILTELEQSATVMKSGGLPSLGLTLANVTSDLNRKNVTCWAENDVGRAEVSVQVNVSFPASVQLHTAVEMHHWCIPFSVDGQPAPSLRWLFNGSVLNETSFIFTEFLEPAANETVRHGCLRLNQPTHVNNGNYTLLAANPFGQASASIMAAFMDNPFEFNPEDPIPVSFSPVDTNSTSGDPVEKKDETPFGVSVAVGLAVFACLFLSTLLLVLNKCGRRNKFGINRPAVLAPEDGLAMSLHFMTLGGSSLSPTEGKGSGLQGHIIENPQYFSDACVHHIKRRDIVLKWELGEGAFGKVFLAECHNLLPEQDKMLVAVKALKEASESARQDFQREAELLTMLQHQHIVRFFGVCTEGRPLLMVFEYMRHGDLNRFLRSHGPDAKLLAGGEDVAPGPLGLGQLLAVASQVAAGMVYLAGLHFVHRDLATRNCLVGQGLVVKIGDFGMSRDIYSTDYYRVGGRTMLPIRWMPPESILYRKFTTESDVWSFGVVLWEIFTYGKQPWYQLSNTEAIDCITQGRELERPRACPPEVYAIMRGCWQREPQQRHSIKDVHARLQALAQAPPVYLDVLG
Chain of CYP2C19 (P33261 whole entry): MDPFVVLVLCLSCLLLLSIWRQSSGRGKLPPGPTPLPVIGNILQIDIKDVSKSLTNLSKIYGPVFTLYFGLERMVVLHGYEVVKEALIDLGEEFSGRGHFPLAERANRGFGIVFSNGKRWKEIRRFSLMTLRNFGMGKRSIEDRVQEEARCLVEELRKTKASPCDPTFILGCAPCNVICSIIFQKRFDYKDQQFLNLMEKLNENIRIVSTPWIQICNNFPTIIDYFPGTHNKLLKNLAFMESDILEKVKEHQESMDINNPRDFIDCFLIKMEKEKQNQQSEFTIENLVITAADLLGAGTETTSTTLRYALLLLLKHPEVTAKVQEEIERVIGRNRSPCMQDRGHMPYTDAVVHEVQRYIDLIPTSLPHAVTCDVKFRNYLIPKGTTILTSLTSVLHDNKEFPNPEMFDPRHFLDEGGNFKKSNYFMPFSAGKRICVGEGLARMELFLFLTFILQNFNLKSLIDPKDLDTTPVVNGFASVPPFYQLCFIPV
Chain of CYP3A4(BQ) (P08684 whole entry): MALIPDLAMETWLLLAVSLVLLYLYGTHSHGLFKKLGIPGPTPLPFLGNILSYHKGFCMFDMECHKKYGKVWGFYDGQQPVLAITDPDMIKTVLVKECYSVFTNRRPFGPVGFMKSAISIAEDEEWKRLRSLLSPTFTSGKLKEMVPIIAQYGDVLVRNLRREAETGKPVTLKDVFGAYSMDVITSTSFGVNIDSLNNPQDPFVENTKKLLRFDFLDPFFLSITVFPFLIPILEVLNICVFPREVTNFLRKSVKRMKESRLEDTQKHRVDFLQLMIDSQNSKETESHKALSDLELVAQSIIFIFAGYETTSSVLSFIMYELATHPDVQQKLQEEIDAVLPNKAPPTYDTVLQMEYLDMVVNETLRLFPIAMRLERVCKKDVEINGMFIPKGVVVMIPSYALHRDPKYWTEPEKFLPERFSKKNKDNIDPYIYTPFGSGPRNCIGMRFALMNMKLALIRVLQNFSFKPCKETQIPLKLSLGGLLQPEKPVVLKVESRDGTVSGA
Chain of Fms kinase (P07333 20-972): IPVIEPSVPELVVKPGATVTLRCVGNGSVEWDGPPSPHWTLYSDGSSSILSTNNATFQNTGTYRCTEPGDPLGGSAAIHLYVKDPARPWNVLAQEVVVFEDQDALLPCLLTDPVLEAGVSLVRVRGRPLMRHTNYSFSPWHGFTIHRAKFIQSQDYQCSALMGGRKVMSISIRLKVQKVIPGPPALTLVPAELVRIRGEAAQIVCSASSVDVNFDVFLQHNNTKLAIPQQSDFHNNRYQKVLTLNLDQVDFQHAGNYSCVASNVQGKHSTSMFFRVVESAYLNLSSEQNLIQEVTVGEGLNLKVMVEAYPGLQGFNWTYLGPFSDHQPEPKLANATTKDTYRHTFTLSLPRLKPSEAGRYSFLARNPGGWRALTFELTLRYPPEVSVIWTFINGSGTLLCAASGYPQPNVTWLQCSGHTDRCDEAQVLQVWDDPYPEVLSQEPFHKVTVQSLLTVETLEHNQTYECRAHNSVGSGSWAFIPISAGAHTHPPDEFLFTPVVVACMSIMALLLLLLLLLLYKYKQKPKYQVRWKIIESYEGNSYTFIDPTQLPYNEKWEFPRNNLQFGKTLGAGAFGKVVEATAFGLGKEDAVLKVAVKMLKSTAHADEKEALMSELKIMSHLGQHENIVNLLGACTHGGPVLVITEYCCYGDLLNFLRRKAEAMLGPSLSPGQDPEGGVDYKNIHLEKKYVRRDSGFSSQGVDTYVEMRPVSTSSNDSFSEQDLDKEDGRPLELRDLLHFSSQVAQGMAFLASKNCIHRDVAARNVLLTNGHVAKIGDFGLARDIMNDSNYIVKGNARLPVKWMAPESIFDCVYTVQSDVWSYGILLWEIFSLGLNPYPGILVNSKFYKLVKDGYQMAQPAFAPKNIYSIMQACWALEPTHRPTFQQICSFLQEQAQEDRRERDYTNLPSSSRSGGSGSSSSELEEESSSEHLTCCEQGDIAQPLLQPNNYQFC

IC50 (CYP2C19) | IC50 (TrkA kinase) | IC50 (CYP3A4(BQ)) | IC50 (Fms kinase) | SMILES
< 5 µM | < 0.1 µM | 5 to 10 µM | < 0.1 µM | CCc1ccc(Nc2ccc(C(=O)c3c[nH]c4ncnc(NC5CCC(F)(F)CC5)c34)c(F)n2)cn1 [Compound P-4096, [4-[(4,4-difluorocyclohexyl)amino]-7H-pyrrolo[2,3-d]pyrimidin-5-yl]-[6-[(6-ethyl-3-pyridyl)amino]-2-fluoro-3-pyridyl]methanone]
< 5 µM | < 0.1 µM | > 10 µM | < 1 µM | CCc1ccc(Nc2ccc(C(=O)c3c[nH]c4ncnc(N[C@@H](C)c5ccc(F)cc5)c34)c(F)n2)cn1 [Compound P-4097, [6-[(6-ethyl-3-pyridyl)amino]-2-fluoro-3-pyridyl]-[4-[[(1S)-1-(4-fluorophenyl)ethyl]amino]-7H-pyrrolo[2,3-d]pyrimidin-5-yl]methanone]
< 5 µM | < 0.01 µM | > 10 µM | < 0.01 µM | CCc1ccc(Nc2ccc(C(=O)c3c[nH]c4ncnc(NCCCOC)c34)c(F)n2)cn1 [Compound P-4098, [6-[(6-ethyl-3-pyridyl)amino]-2-fluoro-3-pyridyl]-[4-(3-methoxypropylamino)-7H-pyrrolo[2,3-d]pyrimidin-5-yl]methanone]
< 5 µM | < 0.1 µM | < 5 µM | < 0.1 µM | CCc1ccc(Nc2ccc(C(=O)c3c[nH]c4ncnc(NC5CCCC5)c34)c(F)n2)cn1 [Compound P-4099, [4-(cyclopentylamino)-7H-pyrrolo[2,3-d]pyrimidin-5-yl]-[6-[(6-ethyl-3-pyridyl)amino]-2-fluoro-3-pyridyl]methanone]
< 5 µM | < 0.1 µM | > 10 µM | < 0.1 µM | CCCCNc1ncnc2[nH]cc(C(=O)c3ccc(Nc4ccc(CC)nc4)nc3F)c12 [Compound P-4100, [4-(butylamino)-7H-pyrrolo[2,3-d]pyrimidin-5-yl]-[6-[(6-ethyl-3-pyridyl)amino]-2-fluoro-3-pyridyl]methanone]
5 to 10 µM | < 0.1 µM | > 10 µM | < 0.1 µM | CC(C)Nc1ncnc2[nH]cc(C(=O)c3ccc(NC4CCCCC4)nc3F)c12 [Compound P-4101, [6-(cyclohexylamino)-2-fluoro-3-pyridyl]-[4-(isopropylamino)-7H-pyrrolo[2,3-d]pyrimidin-5-yl]methanone]
< 5 µM | < 0.1 µM | > 10 µM | < 0.1 µM | CNc1ncnc2[nH]cc(C(=O)c3ccc(NC4CCCCC4)nc3F)c12 [Compound P-4102, [6-(cyclohexylamino)-2-fluoro-3-pyridyl]-[4-(methylamino)-7H-pyrrolo[2,3-d]pyrimidin-5-yl]methanone]
> 10 µM | < 0.1 µM | > 10 µM | < 1 µM | COc1cncc(Nc2ccc(C(=O)c3c[nH]c4ncnc(NCC(F)(F)F)c34)c(F)n2)c1 [Compound P-4103, [2-fluoro-6-[(5-methoxy-3-pyridyl)amino]-3-pyridyl]-[4-(2,2,2-trifluoroethylamino)-7H-pyrrolo[2,3-d]pyrimidin-5-yl]methanone]
5 to 10 µM | < 0.1 µM | > 10 µM | < 1 µM | COc1cncc(Nc2ccc(C(=O)c3c[nH]c4ncnc(NC5CCCCC5)c34)c(F)n2)c1 [Compound P-4104, [4-(cyclohexylamino)-7H-pyrrolo[2,3-d]pyrimidin-5-yl]-[2-fluoro-6-[(5-methoxy-3-pyridyl)amino]-3-pyridyl]methanone]
> 10 µM | < 0.1 µM | > 10 µM | < 0.1 µM | CCCNc1ncnc2[nH]cc(C(=O)c3ccc(Nc4cncc(OC)c4)nc3F)c12 [Compound P-4105, [2-fluoro-6-[(5-methoxy-3-pyridyl)amino]-3-pyridyl]-[4-(propylamino)-7H-pyrrolo[2,3-d]pyrimidin-5-yl]methanone]
< 5 µM | < 0.01 µM | > 10 µM | < 0.1 µM | COc1cncc(Nc2ccc(C(=O)c3c[nH]c4ncnc(NC(C)C)c34)c(F)n2)c1 [Compound P-4106, [2-fluoro-6-[(5-methoxy-3-pyridyl)amino]-3-pyridyl]-[4-(isopropylamino)-7H-pyrrolo[2,3-d]pyrimidin-5-yl]methanone]
< 5 µM | < 0.01 µM | > 10 µM | < 0.1 µM | COc1cncc(Nc2ccc(C(=O)c3c[nH]c4ncnc(NC5CC5)c34)c(F)n2)c1 [Compound P-4107, [4-(cyclopropylamino)-7H-pyrrolo[2,3-d]pyrimidin-5-yl]-[2-fluoro-6-[(5-methoxy-3-pyridyl)amino]-3-pyridyl]methanone]
< 5 µM | < 0.1 µM | > 10 µM | < 0.1 µM | CNc1ncnc2[nH]cc(C(=O)c3ccc(Nc4cncc(OC)c4)nc3F)c12 [Compound P-4108, [2-fluoro-6-[(5-methoxy-3-pyridyl)amino]-3-pyridyl]-[4-(methylamino)-7H-pyrrolo[2,3-d]pyrimidin-5-yl]methanone]
5 to 10 µM | < 0.1 µM | > 10 µM | < 0.1 µM | CC(C)Nc1ncnc2[nH]cc(C(=O)c3ccc(NC4CCCCC4)nc3Cl)c12 [Compound P-4109, [2-chloro-6-(cyclohexylamino)-3-pyridyl]-[4-(isopropylamino)-7H-pyrrolo[2,3-d]pyrimidin-5-yl]methanone]
< 5 µM | < 1 µM | > 10 µM | < 0.1 µM | CNc1ncnc2[nH]cc(C(=O)c3ccc(NC4CCCCC4)nc3Cl)c12 [Compound P-4110, [2-chloro-6-(cyclohexylamino)-3-pyridyl]-[4-(methylamino)-7H-pyrrolo[2,3-d]pyrimidin-5-yl]methanone]
5 to 10 µM | < 0.1 µM | 5 to 10 µM | < 0.1 µM | Cc1ccc(Nc2ccc(C(=O)c3c[nH]c4ncnc(NC5CCCCC5)c34)c(F)n2)cn1 [Compound P-4111, [4-(cyclohexylamino)-7H-pyrrolo[2,3-d]pyrimidin-5-yl]-[2-fluoro-6-[(6-methyl-3-pyridyl)amino]-3-pyridyl]methanone]
< 5 µM | < 0.1 µM | > 10 µM | < 0.1 µM | Cc1ccc(Nc2ccc(C(=O)c3c[nH]c4ncnc(NCC(F)(F)F)c34)c(F)n2)cn1 [Compound P-4112, [2-fluoro-6-[(6-methyl-3-pyridyl)amino]-3-pyridyl]-[4-(2,2,2-trifluoroethylamino)-7H-pyrrolo[2,3-d]pyrimidin-5-yl]methanone]
> 10 µM | < 0.01 µM | > 10 µM | < 0.01 µM | Cc1ccc(Nc2ccc(C(=O)c3c[nH]c4ncnc(NCC5CC5)c34)c(F)n2)cn1 [Compound P-4113, [4-(cyclopropylmethylamino)-7H-pyrrolo[2,3-d]pyrimidin-5-yl]-[2-fluoro-6-[(6-methyl-3-pyridyl)amino]-3-pyridyl]methanone]
> 10 µM | < 0.01 µM | > 10 µM | < 0.01 µM | CCCNc1ncnc2[nH]cc(C(=O)c3ccc(Nc4ccc(C)nc4)nc3F)c12 [Compound P-4114, [2-fluoro-6-[(6-methyl-3-pyridyl)amino]-3-pyridyl]-[4-(propylamino)-7H-pyrrolo[2,3-d]pyrimidin-5-yl]methanone]
< 5 µM | < 0.01 µM | > 10 µM | < 0.01 µM | CNc1ncnc2[nH]cc(C(=O)c3ccc(Nc4ccc(C)nc4)nc3F)c12 [Compound P-4115, [2-fluoro-6-[(6-methyl-3-pyridyl)amino]-3-pyridyl]-[4-(methylamino)-7H-pyrrolo[2,3-d]pyrimidin-5-yl]methanone]
> 10 µM | < 0.01 µM | > 10 µM | < 0.1 µM | CCc1ccc(Nc2ccc(C(=O)c3c[nH]c4ncnc(NC5CCOCC5)c34)c(F)n2)cn1 [Compound P-4116, [6-[(6-ethyl-3-pyridyl)amino]-2-fluoro-3-pyridyl]-[4-(tetrahydropyran-4-ylamino)-7H-pyrrolo[2,3-d]pyrimidin-5-yl]methanone]
> 10 µM | < 0.01 µM | > 10 µM | < 0.01 µM | CCc1ccc(Nc2ccc(C(=O)c3c[nH]c4ncnc(NC(C)C)c34)c(F)n2)cn1 [Compound P-4117, [6-[(6-ethyl-3-pyridyl)amino]-2-fluoro-3-pyridyl]-[4-(isopropylamino)-7H-pyrrolo[2,3-d]pyrimidin-5-yl]methanone]
> 10 µM | < 0.01 µM | > 10 µM | < 0.1 µM | CCc1ccc(Nc2ccc(C(=O)c3c[nH]c4ncnc(NCC5CC5)c34)c(F)n2)cn1 [Compound P-4118, [4-(cyclopropylmethylamino)-7H-pyrrolo[2,3-d]pyrimidin-5-yl]-[6-[(6-ethyl-3-pyridyl)amino]-2-fluoro-3-pyridyl]methanone]
